{"source": "patent US20020127544A1", "about": "“Modulators of US 28” (priority 2000, published 2002)", "key": {"[1]": {"target": "T1, US28 (Human cytomegalovirus, UniProt P69332)", "T1 sequence (P69332 whole entry)": "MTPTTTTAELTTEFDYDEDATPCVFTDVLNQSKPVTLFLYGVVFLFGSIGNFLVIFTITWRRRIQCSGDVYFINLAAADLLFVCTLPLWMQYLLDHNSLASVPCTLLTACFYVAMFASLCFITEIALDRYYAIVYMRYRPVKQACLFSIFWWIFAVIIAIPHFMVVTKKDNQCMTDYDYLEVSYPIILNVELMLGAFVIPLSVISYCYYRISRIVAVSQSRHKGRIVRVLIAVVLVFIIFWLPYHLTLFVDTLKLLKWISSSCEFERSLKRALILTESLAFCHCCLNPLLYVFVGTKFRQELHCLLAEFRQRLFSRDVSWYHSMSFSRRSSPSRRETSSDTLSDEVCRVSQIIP", "assay": "125I-fractalkine radioligand binding to US28 on US28-NSO cells", "set-up": "host or cells: mouse NSO cells (US28-NSO); species or system Cytomegalovirus (CMV)", "description": "The US28 expressing cells used in most assays consist of a mouse cell line (NSO cells from ATCC) stably expressing transfected US28 cDNA under the control of a CMV promoter (from R & D Systems). These cells were cultured in IMDM-5% FBS, and harvested when the concentration was between 0.5-1.0×10^6 cells/mL. Some assays were performed with adherent human 293 cells (US28-293 cells) or membranes. The cells were centrifuged and resuspended in assay buffer (20 mM HEPES, 140 mM NaCl, 1 mM CaCl2, 5 mM MgCl2, and with 0.2% bovine serum albumin) to a concentration of 5.6×10^6 cells/mL. Using the Multi-Probe automated system, set up with 8 assay plates at a time, first 0.09 mL of cells was added to the assay plates containing the compounds. The final concentration of the compounds was 5 μg/mL each. Then 0.09 mL of ^1251I-fractalkine diluted in assay buffer (final concentration ˜2-10fM, with ˜30,000 cpm per well) was added, the plates sealed and incubated for approximately 3 hours at 4 degrees C on a shaker platform. […] Scintillation fluid (35 μL) was added to all wells, the plates were sealed and counted in a Top Count scintillation counter. […]\nMethiothepin mesylate (from the RBI division of Sigma Chemical Co., St. Louis, Mo., USA, Catalog No. M-149) and octoclothepin maleate (from RBI, Catalog No. O-111) were evaluated in the assays described in Examples 1 and 2. […]"}, "[2]": {"target": "T1, US28", "assay": "cytoplasmic calcium mobilization in US28-293 cells", "format": "cell-based, Cytomegalovirus (CMV)", "set-up": "expressed in transfected cells; host or cells: human 293 cells (US28-293)", "details": "INDO-1 dye, mimicking the action of fractalkine in binding and signaling (FIG. 2)", "description": "For each test, 1×10^6 cells were incubated at 37° C. in the cuvette of a PTI spectrometer, and the ratio of 410/490 nm emission plotted over time (typically 2-3 minutes), with compounds added at 5 seconds, followed by fractalkine at 60 seconds. […] Compounds which inhibited fractalkine binding were tested in this assay for the effects on Ca2+ in this system.\nMethiothepin mesylate (from the RBI division of Sigma Chemical Co., St. Louis, Mo., USA, Catalog No. M-149) and octoclothepin maleate (from RBI, Catalog No. O-111) were evaluated in the assays described in Examples 1 and 2. The IC50 values were 0.3 μM for methiothepin mesylate and 0.7 μM for octoclothepin maleate."}, "[3]": {"target": "T1, US28", "set-up": "host or cells: mouse NSO cells (US28-NSO)", "details": "CX3C chemokine binding to US28; read-out: KI, binding affinity to US28; cited from earlier work"}}, "note": "Where a name gives a salt, the structure may show the parent alone. Read-outs that look alike come from different tables or passages of the source.", "data": [{"molecule": "CSc1ccc2c(c1)C(N1CCN(C)CC1)Cc1ccccc1S2", "note": "(centres unmarked) [methiothepin mesylate, methiothepin]", "values": [{"measurement": "IC50", "setting": "[1]", "result": 300, "unit": "nM"}, {"measurement": "mode of action in calcium mobilization", "setting": "[2]", "result": "competitive agonists"}]}, {"molecule": "CN1CCN(C2Cc3ccccc3Sc3ccc(Cl)cc32)CC1.O=C(O)/C=C\\C(=O)O", "note": "(centres unmarked) [octoclothepin maleate, octoclothepin]", "values": [{"measurement": "IC50", "setting": "[1]; dose response against fractalkine on US28-NSO cells (FIG. 1), read-out: IC50, inhibition of fractalkine binding to US28", "result": 700, "unit": "nM"}, {"measurement": "mode of action in calcium mobilization", "setting": "[2]", "result": "competitive agonists"}]}, {"molecule": "Fractalkine: the CX3C chemokine, ligand of US28 (protein, UniProt P78423 25-397, looked up) Fractalkine: QHHGVTKCNITCSKMTSKIPVALLIHYQQNQASCGKRAIILETRQHRLFCADPKEQWVKDAMQHLDRQAAALTRNGGTFEKQIGEVKPRTTPAAGGMDESVVLEPEATGESSSLEPTPSSQEAQRALGTSPELPTGVTGSSGTRLPPTPKAQDGGPVGTELFRVPPVSTAATWQSSAPHQPGPSLWAEAKTSEAPSTQDPSTQASTASSPAPEENAPSEGQRVWGQGQSPRPENSLEREEMGPVPAHTDAFQDWGPGSMAHVSVVPVSSEGTPSREPVASGSWTPKAEEPIHATMDPQRLGVLITPVPDAQAATRRQAVGLLAFLGLLFCLGVAMFTYQSLQGCPRKMAGEMAEGLRYIPRSCGSNSYVLVPV", "values": [{"measurement": "Ki", "setting": "[3]", "result": "~0.05", "unit": "nM"}]}]}
